How the values were obtained:
[1] = system: BTP organoids; assay: BTP organoid differentiation, RT-qPCR of AT2 and BTP markers; type: cell-based, human; details: 7 days
Experimental: Primary BTP organoid cultures from 15-18.5 weeks post conception lung tissue were established and maintained as previously reported^3,21,22. BTP organoids were maintained in maintenance media (described below) under 8 mg/mL Matrigel (Corning Cat #354234), fed every three days and passaged 1:3 every 7-10 days by needle sheering.
Differentiations were performed on BTP organoids at passage three by removing maintenance media consisting of: DMEM/F-12 (Corning, Cat #10-092-CV), 100 U/mL penicillin-streptomycin (Thermo Fisher, Cat #15140122), 1×B-27 supplement (Thermo Fisher, Cat #17504044), 1× N2 supplement (Thermo Fisher, Cat #17502048), 0.05% BSA (Sigma, Cat #A9647), 50 μg/mL L-ascorbic acid (Sigma,Cat #A4544), 0.4 μM 1-Thioglycerol (Sigma, Cat #M1753), 50 nM all-trans retinoic acid (Sigma, Cat #R2625), 10 ng/ml recombinant human FGF7 (R&D Systems, Cat #251-KG), and 3 μM CHIR99021 (APE×BIO, Cat #A3011) and replacing with differentiation media. For data in FIG. 3 multiple differentiation medias were tested, all of which consisted of maintenance media with the addition of 1 μM A-8301 and/or the addition of 100 ng/ml BMP4 and/or removal of all trans retinoic acid. B-27 supplement without vitamin A (Thermo Fisher, Cat #12587010) was used instead of full B-27 supplement in conditions in which all trans retinoic acid was removed. For data in all FIGS. 4, 6, 7, 10 differentiation media consisted of common components: DMEM/F12, 100 U/mL penicillin-streptomycin, 1×B-27 supplement without vitamin A, 1× N2 supplement, 0.05% BSA, 50 μg/mL L-ascorbic acid, 0.4 μM 1-Thioglycerol. 10 ng/ml recombinant human FGF7, and 3 μM CHIR99021. To make CK+AB differentiation media 1 μM A-8301 and 100 ng/mL BMP4 was added. To make CKDCI differentiation media 50 nM Dexamethasone (Sigma, Cat #D4902), […] 3-isobutyl-1-methylxanthine (Sigma, Cat #I5879) and […] 8-Bromoadensoine 3′,5′-cyclic monophosphate sodium salt (Sigma, Cat #B7880) was added. Differentiations were fed every three days and passaged at seven day intervals by needle sheering.
(§1) Organoids were dislodged from Matrigel using a P1000 tip, pelleted in a 1.5 mL tube and flash frozen by placing the tube in a small amount of liquid nitrogen with minimal residual media. RNA was isolated from frozen pellets using the MagMax-96 Total RNA Isolation kit (Thermo Fisher, Cat #AM1830) according to the manufacturer's recommendations. RNA quality and yield was determined on a Nanodrop 2000 spectrophotometer. Reverse Transcription was performed in triplicate for each biological replicate using the SuperScript VILO cDNA kit with 200 ng RNA per reaction. After Reverse Transcription, cDNA was diluted 1:2 with DNAse/RNAse free water and 1/40th of the final reaction was used for each RT-qPCR measurement. RT-qPCR measurements were performed using a Step One Plus Real-Time PCR System (Thermo Fisher, Cat #43765592 R) using QuantiTect SYBR Green qPCR Master Mix (Qiagen, Cat #204145) with primers at a concentration of 500 nM. Sequences for RT-qPCR primers used in this manuscript are in Table 2.
For RT-qPCR data arbitrary units (AUs) of gene expression was first calculated using the following equation: 2^(GAPDHCt-TargetCt)×10,000. For FIG. 12B, FIG. 5D, FIG. 7I, FIG. 9E, and FIG. 10H the AUs for each biological replicate were calculated from the mean of technical replicates and a ratio paired t-test was performed between the two conditions compared to determine statistical significance (p). […] For FIG. 3E AUs were normalized to AUs of expression in progenitor media for each biological replicate to obtain fold change. Repeated measures one-way ANOVA was performed with Dunnett's correction on linearized (log-transformed) fold change values comparing all experimental conditions to progenitor medium to determine p.

[2] = system: canalicular stage human lung ALI explants; assay: Lung ALI explant culture, immunofluorescent staining; type: cell-based; details: for SFTPA staining in ProSFTPC-positive cells: relative to untreated explants
Experimental: Human fetal lung within the canalicular stage of lung development was utilized for lung ALI explant cultures (specifically 15-18.5 weeks post conception). Small pieces (<0.5 cm diameter) were dissected from distal regions of the lung and placed on Nucleopore Track-Etched Membrane disks (13 mm, 8 μm pore, poly-carbonate) (Sigma, Cat #WHA110414) floating on top of 500 μl of human lung ALI explant media (Advanced DMEM/F-12 (Thermo Fisher, Cat #12634010), 2 mM Glutamax (Thermo Fisher, Cat #35050061), 15 mM HEPES (Corning, Cat #25060CI), 1× B27 Supplement (Thermo Fisher, Cat #17504044) 1×N-2 Supplement (Thermo Fisher, Cat #17502048), 100 U/mL penicillin-streptomycin (Thermo Fisher, Cat #15140122)) in a 24-well tissue culture plate (Thermo Fisher, Cat #12565163). Where indicated, 1 μM A-8301 (APE×BIO Cat #A3133), 100 ng/mL rhTGFβ1 (R&D Systems Cat #240-B-002), 100 ng/mL rhNOGGIN (produced in-house) or 100 ng/mL BMP4 (R&D Systems Cat #314-BP-050) was added to human lung ALI explant media.
All samples processed were fixed for 24 h in 10% Neutral Buffered Formalin at room temperature with gentle agitation. Samples were washed 3× with UltraPure DNase/RNase-free distilled water (Thermo Fisher, Cat #10977015) and dehydrated through an alcohol series consisting of 25%, 50%, 75% and 100% methanol, followed by 100% and 70% ethanol. For tissue and explants each step was performed for at least 1 h. For organoids each step was performed for at least 15 min. In the case of explants and organoids, specimens were embedded in Histogel (VWR Cat #83009-992) prior to paraffin processing. Samples were paraffin processed in an automated tissue processor through the following series: 70%, 80%, 2× 95%, 3× 100% ethanol, 3× xylene and 3× paraffin with 1 h for each step. Tissue was embedded into paraffin blocks and cut into 5 μm-thick sections onto charged glass slides using a microtome. Slides were baked for 1 h at 60° C. immediately prior to staining.
Slides were treated with 2× HistoClear II (National Diagnostics, Cat #HS-202) washes, then rehydrated through washes in 100%, 95%, 70%, 30% ethanol for 4 min each, with buffer exchanges performed halfway through washing. Then, slides were washed 2×5 min with ddH20. Antigen retrieval in 1× Sodium Citrate Buffer (100 mM trisodium citrate (Sigma, Cat #S1804), 0.5% Tween-20 (Thermo Fisher, Cat #BP337), pH 6.0) for 20 min at 99° C. After washing 3× in ddH20 slides were blocked for 1 h with blocking solution: 5% normal donkey serum (Sigma, Cat #D9663), 0.1% Tween-20 in PBS. Slides were then incubated in primary antibodies diluted in blocking solution in a humidified chamber at 4° C. overnight. Slides were washed 3× in 1×PBS for 10 min each. Slides were incubated with secondary antibodies and DAPI (1 μg/mL) diluted in blocking solution for 1 h, then were washed 3× in 1×PBS for 5 min each. Slides were mounted in ProLong Gold (Thermo Fisher, Cat #P369300) and imaged within 2 weeks. Primary and secondary antibodies used in this study are available in Table 1.

[3] = system: CK+AB induced AT2-like organoids; assay: Expansion of AT2-like organoids in SFFF media (growth, RT-qPCR, IF, FACS); type: cell-based, human; details: for MUC5AC expression (RT-qPCR) on removal of the component from SFFF / SFTPC expression (RT-qPCR) on removal of the component from SFFF: SFFF lacking the component vs SFFF
Experimental: After 21 days of differentiation in CK+AB or CK+DCI organoids were passaged and fed with SFFF or SFFF without FGF10 consisting of: Advanced DMEM/F12, 2 mM Glutamax, 1× B27 supplement, 100 U/mL penicillin-streptomycin, 15 mM HEPES, 0.05% BSA, 10 μM TGFβ inhibitor SB43152 (APExBIO, Cat #A8249), 1 μM p38 MAP kinase inhibitor BIRB796 (APExBIO, Cat #A5639), 3 μM CHIR99021, 50 ng/mL rhEGF (R&D Systems, Cat #236-EG) with (SFFF) or without the addition of 10 ng/mL FGF10 (produced in-house). Organoids were passaged every 7-14 days at a ratio of 1:6 by needle sheering^93.
as §1
Organoids were retrieved from Matrigel by mechanical dissociation with a P1000, washed 2× with 1 mL PBS and, resuspended with TrypLE and incubated at 37° C. until a single cell suspension was obtained with light pipetting (typically 10 min). Cells were washed 3× with 1 mL of FACS buffer consisting of PBS, 2% BSA and 10 μM Y-27632 (APE×BIO, Cat #3008) and then filtered through a […] mesh. Cells were stained for 1 h on ice in FACS buffer with a 1:60 dilution of anti HTII-280 IgM antibody. Cells were washed 3× with 1 mL of FACS buffer before 30 min of staining in FACS buffer with a 1:1000 dilution of anti-mouse IgM-Alexaflour-488 secondary antibody (Jackson Immunoresearch, Cat #715545140) on ice. After 3× washes with 1 mL of FACS buffer cells were suspended in FACS buffer with 1:4000 dilution of DAPI. […] All steps were carried out at 4° C. unless otherwise indicated. Cells were pelleted at 500×G for 5 min in swing bucket rotors. FACS was performed on either a Sony MA900 or the ThermoFisher Bigfoot Spectral Cell Sorter and analyzed in FlowJo v10.

[4] = CK+AB in absence vs presence of ATRA
[5] = added to bud tip progenitor media, vs progenitor media

## CC1=C(/C=C/C(C)=C/C=C/C(C)=C/C(=O)O)C(C)(C)CCC1 [ATRA, all-trans retinoic acid]
[1]; [4]
  SFTPB expression (RT-qPCR) on removal of ATRA: reduced
  SFTPC expression (RT-qPCR) on removal of ATRA: significantly enhancing
  SOX9 expression (RT-qPCR) on removal of ATRA: reducing

## TGFβ1: recombinant TGFβ1, activator of TGFβ-signaling, 100 ng/mL
[2]; ALI explants
  TP63 expression in epithelial cells: most epithelial cells expressing TP63
[2]; day 6 ALI explants
  ProSFTPC staining: reduced
  SFTPA staining in ProSFTPC-positive cells: barely detectible

## Cc1ccc(-n2nc(C(C)(C)C)cc2NC(=O)Nc2ccc(OCCN3CCOCC3)c3ccccc23)cc1 [BIRB797, reference compound]
[3]
  MUC5AC expression (RT-qPCR) on removal of the component from SFFF: increased
  SFTPC expression (RT-qPCR) on removal of the component from SFFF: improved expression

## Cc1cccc(-c2nn(C(=S)Nc3ccccc3)cc2-c2ccnc3ccccc23)n1 [A-8301]
[2]; day 6 ALI explants
  SFTPA staining in ProSFTPC-positive cells: increased
[1]; [5]
  BTP marker SOX9 expression (RT-qPCR): Neither treatment alone significantly reduced
  SFTPA1 expression (RT-qPCR): significantly increased
  SFTPC expression (RT-qPCR): significantly increased

B1: BMP4: recombinant BMP4, BMP-activator, 100 ng/mL (R&D Systems) (protein, UniProt P12644 293-408, looked up)
Bone morphogenetic protein 4: SPKHHSQRARKKNKNCRRHSLYVDFSDVGWNDWIVAPPGYQAFYCHGDCPFPLADHLNSTNHAIVQTLVNSVNSSIPKACCVPTELSAISMLYLDEYDKVVLKNYQEMVVEGCGCR
[2]; day 6 ALI explants
  SFTPA staining in ProSFTPC-positive cells: robust and readily detectable levels
[1]; [5]
  BTP marker SOX9 expression (RT-qPCR): Neither treatment alone significantly reduced
  HOPX expression (RT-qPCR): significantly increased
  LAMP3 expression (RT-qPCR): significantly increased
  SFTPA1 expression (RT-qPCR): significantly increased
  SFTPB expression (RT-qPCR): significantly increased

B2: NOGGIN: recombinant BMP inhibitor NOGGIN, 100 ng/mL, produced in-house (protein, UniProt Q13253 28-232, looked up)
Noggin: QHYLHIRPAPSDNLPLVDLIEHPDPIFDPKEKDLNETLLRSLLGGHYDPGFMATSPPEDRPGGGGGAAGGAEDLAELDQLLRQRPSGAMPSEIKGLEFSEGLAQGKKQRLSKKLRRKLQMWLWSQTFCPVLYAWNDLGSRFWPRYVKVGSCFSKRSCSVPEGMVCKPSKSVHLTVLRWRCQRRGGQRCGWIPIQYPIISECKCSC
[2]; day 6 ALI explants, 100 ng/mL NOGGIN
  phosphoSMAD1/5/8 staining: blocked
[2]; day 6 ALI explants
  SFTPA staining in ProSFTPC-positive cells: did not change

B3: FGF10: recombinant human FGF10, 10 ng/mL, produced in-house, component of SFFF (protein, UniProt O15520 38-208, looked up)
Fibroblast growth factor 10: QALGQDMVSPEATNSSSSSFSSPSSAGRHVRSYNHLQGDVRWRKLFSFTKYFLKIEKNGKVSGTKKENCPYSILEITSVEIGVVAVKAINSNYYLAMNKKGKLYGSKEFNNDCKLKERIEENGYNTYASFNWQHNGRQMYVALNGKGAPRRGQKTRRKNTSAHFLPMVVHS
[3]
  MUC5AC expression (RT-qPCR) on removal of the component from SFFF: reduction of MUC5AC to near-zero levels
  SFTPC expression (RT-qPCR) on removal of the component from SFFF: improved expression
[3]; SFFF with vs without FGF10
  AT2 phenotype of CK+AB differentiated AT2-like cells: repressed

Source: US20260174819A1, “COMPOSITIONS AND METHODS FOR OBTAINING HUMAN ALVEOLAR CELLS AND RELATED USES THEREOF” (The Regents of the University of Michigan, priority 2022, published 2026)
